Assay results published in PubChem BioAssay (NCI).
Values joined by “and” are separate entries in the source; they are usually repeats but may differ in a detail not shown here. Equal values may be shown once.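 How tested: cells in 96-well plates exposed to compound for 48 hours at five concentrations. GI50 marks 50% less growth. TGI: concentration producing complete growth inhibition.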

test system: ACHN renal; test: growth of human tumour cells (NCI), 48 h

| SMILES | TGI |
| --- | --- |
| CC(C)c1ccc(/C=C2/C=C(c3ccc4ccccc4c3)OC2=O)cc1 | > 100 µM |
| COc1ccc(/C=C2\CCC(C)C3=C2NC(=S)NC3c2ccc(OC)c(OC)c2)cc1OC (centres undefined) | > 31.6 µM |
| COc1ccc2c(=O)c(O)c(-c3ccc(OC)c(OC)c3)oc2c1 | > 100 µM |
| COc1ccc(C(OCC2OC(n3cc(C)c(=O)[nH]c3=O)CC2n2cc(Cn3cc(I)c(=O)[nH]c3=O)nn2)(c2ccccc2)c2ccccc2)cc1 (centres undefined) | > 100 µM |
| C=C(C1=CC(=O)C(C)(C)O1)[C@@H]1CC=C([C@@H]2CC[C@H]3[C@@]2(C)CC[C@H]2C(C)(C)C(=O)[C@H](O)C[C@]32C)[C@H](O)O1 | 3.04 µM |
| CC1=CC2C(O1)C1C(=O)C=CC(=O)C1=CC2[N+](=O)[O-] (centres undefined) | 12.8 µM |
| C=C(Br)C(C)(Cl)CCC(Br)C(C)(C)Cl (centres undefined) | 75 µM |
| Cc1c2cnccc2c(C)c2c1c1ccccc1n2CCCN | 0.893 µM |
| O=C(CCC(=O)c1ccc(Cl)cc1)NO | > 100 µM |
| COc1c(C)c(C/C=C(\C)CCCCO[Si](c2ccccc2)(c2ccccc2)C(C)(C)C)c(OC)c(OC)c1OC | 25.1 µM |
| CN1CCN([C@H]2C[C@H]3[C@@H]4CC=C5C[C@@H](O)CC[C@]5(C)[C@H]4CC[C@]3(C)C2=O)CC1 | > 100 µM |
| COc1ccc(C2c3cc4c(cc3OC(NNS(=O)(=O)c3ccc(C)cc3)C2C)OCO4)cc1 (centres undefined) | > 100 µM |
| CNC(=O)OCC1=C(COC(=O)NC)C(C)N(c2ccc(OC)cc2)C1 (centres undefined) | > 100 µM |
| CCC12C=CCN3CCC4(C(=C(C(=O)OC)[C@@H]1O)Nc1ccccc14)C32 (some centres undefined) | 3.3 µM |
| O=C(O)CN(CC(=O)O)C1CCCCC1N(CC(=O)O)CC(=O)NCCN=C=S (centres undefined) | > 100 µM |
| Cc1nc(C(N)=S)sc1/C(CC(=O)C(=O)Nc1cccc2ccc(O)cc12)=N\NC(=O)c1ccncc1 | > 100 µM |
| Cc1cc(O)c2c(=O)c3ccccc3[nH]c2c1 | > 100 µM |
| N=c1n(C(=O)N2CCCC2)c2cc(Cl)ccc2n1C1=NCCN1 | > 100 µM |
| COc1nc(N)c(C(=O)CCl)c(=O)n1C | 48.5 µM |
| [N-]=[N+]=Nc1cc(=O)oc2ccccc12 | > 100 µM |
| Nc1cccc2cc(Cl)cnc12 | > 100 µM |
| C=C1c2nc3ccccc3n2C=C(c2ccccc2)N1c1ccc([N+](=O)[O-])cc1 | 12.8 µM |
| Cc1ccccc1-n1c(=O)c2ncn(CCCl)c2n(-c2ccccc2C)c1=S | > 100 µM |

test system: HL-60(TB) leukemia; test: growth of human tumour cells (NCI), 48 h

| SMILES | TGI | GI50 |
| --- | --- | --- |
| CC(=O)Nc1ccc(-c2nnc(SCC(=O)Nc3ccc([N+](=O)[O-])cc3)o2)cc1 | > 100 µM | – |
| N.N.N.N.O=[N+]([O-])[O-].[Co+3].[N-]=[N+]=[N-].[N-]=[N+]=[N-] | > 100 µM | – |
| COC(=O)C1CCC(=O)N1C(c1ccccc1)c1ccc(OC)c(OC)c1 (centres undefined) | > 100 µM | – |
| Oc1cccc2c(Cl)ccnc12 | 3.36 µM | – |
| Cc1cccc(/C=N/NC(=S)Nc2ccccc2)n1 | > 24.7 µM | – |
| N#CC1=C(N)N(c2ccccc2)C(c2ccco2)C1(C#N)C#N (centres undefined) | 53.4 µM | – |
| Cc1cc(=O)[nH]c(NN2C(Cl)C(=O)C2c2ccccc2O)n1 (centres undefined) | > 100 µM | – |
| CC(C)c1ccc(/C=C2/C=C(c3ccc4ccccc4c3)OC2=O)cc1 | 39.8 µM | – |
| COc1ccc(/C=C2\CCC(C)C3=C2NC(=S)NC3c2ccc(OC)c(OC)c2)cc1OC (centres undefined) | > 31.6 µM | – |
| COc1ccc2c(=O)c(O)c(-c3ccc(OC)c(OC)c3)oc2c1 | 5.22 µM | – |
| COc1ccc(C(OCC2OC(n3cc(C)c(=O)[nH]c3=O)CC2n2cc(Cn3cc(I)c(=O)[nH]c3=O)nn2)(c2ccccc2)c2ccccc2)cc1 (centres undefined) | 5.55 µM | – |
| C=C(C1=CC(=O)C(C)(C)O1)[C@@H]1CC=C([C@@H]2CC[C@H]3[C@@]2(C)CC[C@H]2C(C)(C)C(=O)[C@H](O)C[C@]32C)[C@H](O)O1 | 8.11 µM | – |
| CC1=CC2C(O1)C1C(=O)C=CC(=O)C1=CC2[N+](=O)[O-] (centres undefined) | > 22.5 µM | – |
| C=C(Br)C(C)(Cl)CCC(Br)C(C)(C)Cl (centres undefined) | 80.6 µM | – |
| Cc1c2cnccc2c(C)c2c1c1ccccc1n2CCCN | 1.52 µM and 1.81 µM | 0.527 µM and 0.414 µM |
